Structures can show the parent of a compound that is named as a salt.
Columns and labels:
Klebsiella pneumoniae = assay: MIC against Gram negatives, microdilution broth method (Protocol 2)
Nocardia caviae = assay: MIC determination procedure for Mycobacterium species (Protocol 4); format: cell-based; settings: Nocardia caviae 2497
Haemophilus influenzae = assay: MIC against Gram negatives, microdilution broth method (Protocol 2); format: cell-based
Description: The specific protocols used were as follows:
Drug Dilutions, Inoculation, MIC Determination: • 1. […] All MICs were done in duplicate. • 6.

Escherichia coli = assay: as above
Prevotella spp. = assay: MIC, agar dilution method (Protocol 3); format: cell-based; settings: 13 isolates tested
Staphylococcus aureus = assay: MIC, micro dilution broth method (Protocol 1); format: cell-based
Streptococcus pneumoniae = assay: MIC, micro dilution broth method (Protocol 1); format: cell-based
Peptostreptococcus spp. = assay: MIC, agar dilution method (Protocol 3); format: cell-based; settings: 11 isolates tested
N. nova = assay: MIC determination procedure for Mycobacterium species (Protocol 4); format: cell-based; settings: N. nova 10
[1] = tested on: Staphylococcus epidermidis; assay: MIC, micro dilution broth method (Protocol 1); format: cell-based; settings: Staphlococcus epidermidis, 35 isolates tested
Bacillus subtilis = assay: MIC, micro dilution broth method (Protocol 1); format: cell-based
Bacteroides fragilis = assay: MIC, agar dilution method (Protocol 3); format: cell-based; settings: 25 isolates tested
Clostridium difficile = assay: MIC, agar dilution method (Protocol 3); format: cell-based
Bacillus cereus = assay: MIC, micro dilution broth method (Protocol 1); format: cell-based
N. asteroids = assay: MIC determination procedure for Mycobacterium species (Protocol 4); format: cell-based; settings: N. asteroids 2039
Acinetobacter baumannii = assay: MIC against Gram negatives, microdilution broth method (Protocol 2)
Fusobacterium spp. = assay: MIC, agar dilution method (Protocol 3); format: cell-based; settings: 16 isolates tested
Enterococcus faecalis = assay: MIC, micro dilution broth method (Protocol 1); format: cell-based
[2] = tested on: Mycobacterium tuberculosis; assay: Mycobacterium tuberculosis Serum Shift MIC Assay (Protocol 5); format: cell-based
Description: Protocol #5. Protocol for Mycobacterium tuberculosis Serum Shift MIC Assay
Media Prep: • 1. […] It was important that all media and supplements were sterilized prior to MICs. • 2. Prepared all media below and inoculated as described in next section. Tested all compounds against Mtb using each media. • a. 7H9+0.2% glycerol+10% OADC (“standard” MIC media). • b. 7H9+0.2% glycerol+2 g/L dextrose+0.85 g/L NaCl+0.003 g/L catalase (0% FBS). • c. 2×7H9+0.2% glycerol+2 g/L dextrose+0.85 g/L NaCl+0.003 g/L catalase combined with equal volume Fetal Bovine Serum (50% FBS).
Inoculum Prep: • 1. […] Typically plates were two to three weeks of age when used for this assay due to the slow growth of this organism in culture. • 2. Vortexed well, then sonicated in water bath for 30 sec providing a suspension of ˜10^8 cells/ml. […] Prepared inoculum in each of the three media formulations by diluting the BBL Prompt suspension 1/200 (for example: transferred 0.2 ml of cells to 40 ml of medium) to obtain a starting cell density of ˜10^6 cells/ml. • 4.
Drug Dilutions, Inoculation, MIC Determination: • 1. […]
After 24 hours the fluorescence of each well was measured at Excitation 492 nm, Emission 595 nm.
Percent inhibition by a given compound was calculated as follows: Percent inhibition=100−([well fluorescence-average background fluorescence]/[DMSO control−average background fluorescence]×100).

Neisseria meningitidis = assay: MIC, agar dilution method (Protocol 3); format: cell-based; settings: 12 isolates tested
Method: (§1) Plate Pouring: • 1. Prepared 100× drug stocks of each test compound as described in Table 1A. Used a 15 mL centrifuge tube, added 100 uL of each drug stock to 10 mL of molten agar (cooled to 55° C. in water bath). Mixed by inverting tube 2-3× then pour into individually labeled 60×15 mm Petri dish. • 2. […] Poured 4 drug free plates: 2 as positive control, 2 as aerobic control. • 4. Allowed plates to dry. Used same day or stored overnight at RT or stored up to 3 days at 4° C. • 5. Plates were labeled accordingly for drug concentration and strain placement. Plate Inoculation (Performed in Biosafety Cabinet): • 1. Streaked each strain onto individual agar plates as described above. Incubated for required time and environmental condition (i.e. anaerobic, microaerophilic, etc). • 2. Used direct colony suspension method to suspend loopfuls of freshly streaked cells into 4 mL 0.9% […] and vortexed. • 3. Adjusted suspension to O.D.600 0.05 (5×10e7 cfu/mL). Vortexed to mix. • 4. Transferred 0.2 mL of adjusted, mixed cultures to a 96 well plate. When ≦5 strains were tested, all strains were lined together in a single row. When testing >5 strains, transfered strains into plate with no more that 5 strains in a single row. This was necessary to fit on the small plates. • 5. […] The former and latter served as growth and inoculation controls. Incubated one plate from each set of drug-free controls under required atmospheric conditions with MIC plates and one set aerobically to test for contamination with aerobic bacteria. Aerobic culture was negative for growth when working with strict anaerobe or microaerophilic strain. Some growth was visible with N. gonorrhoeae. • 6. Allowed inoculum to dry (for as short a time as necessary), then placed upside down in GasPak with appropriate number of sachets and incubate. • 7. Neisseria spp. were incubated at 37° C. in a5% CO2 environment for 24 h. MIC Determination: Examined the test plates after the correct incubation time and read the MIC endpoint at the concentration where a marked reduction occurred in the appearance of growth on the test plate as compared to that of growth on the positive control plates. [table]

Neisseria gonorrhoeae = assay: MIC, agar dilution method (Protocol 3); format: cell-based
Method: as §1

Mycobacterium avium = assay: MIC determination procedure for Mycobacterium species (Protocol 4); format: cell-based
Enterobacter cloacae = assay: MIC against Gram negatives, microdilution broth method (Protocol 2)
Pseudomonas aeruginosa = assay: as above
Moraxella catarrhalis = assay: as above
Enterococcus faecium = assay: MIC, micro dilution broth method (Protocol 1); format: cell-based
[3] = tested on: Bacteroides and Parabacter spp.; assay: MIC, agar dilution method (Protocol 3); format: cell-based; settings: 26 isolates tested
M. tuberculosis = assay: MIC determination procedure for Mycobacterium species (Protocol 4); format: cell-based
[4] = tested on: β-haemolytic streptococci (Groups A, B, C and G); assay: MIC, micro dilution broth method (Protocol 1); format: cell-based; settings: 28 isolates tested
Proteus mirabilis = assay: MIC against Gram negatives, microdilution broth method (Protocol 2)
Clostridium perfringens = assay: microbe, parasite or virus in culture; format: cell-based
[5] = Haemophilus influenzae, 55 isolates tested
[6] = Staphylococcus aureus, 67 isolates tested
[7] = Streptococcus pneumoniae, 67 isolates tested
[8] = Enterococcus faecalis, 34 isolates tested
[9] = M. tuberculosis Erdman ATCC 35801
[10] = Neisseria gonorrhoeae, 13 isolates tested

CCNC(=O)Nc1nc2cc(-c3cnc(C(C)(C)O)nc3)cc([C@H]3CCCO3)c2[nH]1 [Compound 13, methanesulfonic acid salt of 1-ethyl-3-[5-[2-(1-hydroxy-1-methyl-ethyl)pyrimidin-5-yl]-7-[(2R)-tetrahydrofuran-2-yl]-1H-benzimidazol-2-yl]urea]
MIC90 (Klebsiella pneumoniae): > 8 µg/mL
MIC (Nocardia caviae): 2 µg/mL
MIC (Haemophilus influenzae; Haemophilus influenzae (Rd1 KW20) ATCC 51907): 2.5 µg/mL
MIC (Haemophilus influenzae; Haemophilus influenzae ATCC 49247): 1 µg/mL
MIC (Haemophilus influenzae; Haemophilus influenzae Rd0894 (AcrA-)): 0.14 µg/mL
MIC90 (Haemophilus influenzae; [5]): 2 µg/mL
MIC Range (Haemophilus influenzae; [5]): 0.25 to 8 µg/mL
MIC90 (Escherichia coli): > 8 µg/mL
MIC90 (Prevotella spp.): > 16 µg/mL
MIC (Staphylococcus aureus; Staphylococcus aureus ATCC 29213): 0.13 µg/mL
MIC (Staphylococcus aureus; Staphylococcus aureus ATCC 29213 GyrB T173I): 1.29 µg/mL
MIC (Staphylococcus aureus; Staphylococcus aureus ATCC 29213 with Human Serum): 0.31 µg/mL
MIC (Staphylococcus aureus; Staphylococcus aureus ATCC 29213 with Mouse Serum): 2 µg/mL
MIC (Staphylococcus aureus; Staphylococcus aureus ATCC 29213 with Rat Serum): 0.53 µg/mL
MIC90 (Staphylococcus aureus; [6]): 0.25 µg/mL
MIC Range (Staphylococcus aureus; [6]): 0.03 to 0.5 µg/mL
MIC (Streptococcus pneumoniae; Streptococcus pneumoniae ATCC 10015, with Laked Horse Blood): 0.022 µg/mL
MIC90 (Streptococcus pneumoniae; [7]): 0.06 µg/mL
MIC Range (Streptococcus pneumoniae; [7]): 0.015 to 0.06 µg/mL
MIC90 (Peptostreptococcus spp.): > 16 µg/mL
MIC (N. nova): 8 µg/mL
MIC Range [1]: 0.03 to 0.25 µg/mL
MIC90 ([1]; Staphylococcus epidermidis): 0.12 µg/mL
MIC (Bacillus subtilis; Bacillus subtilis (168) ATCC 6051): > 8 µg/mL
MIC (Bacillus subtilis; Bacillus subtilis ATCC 6638): > 8 µg/mL
MIC90 (Bacteroides fragilis): > 16 µg/mL
MIC90 (Clostridium difficile; Clostridioides difficile, Clostridium difficile, 16 isolates tested): 1 µg/mL
MIC (Clostridium difficile; Clostridium difficile ATCC BAA-1382): 1 µg/mL
MIC Range (Clostridium difficile; Clostridium difficile, 16 isolates tested): 0.5 to 16 µg/mL
MIC (Bacillus cereus; Bacillus cereus ATCC 10987): 0.5 µg/mL
MIC (Bacillus cereus; Bacillus cereus ATCC 14579): 0.5 µg/mL
MIC (N. asteroids): 8 µg/mL
MIC90 (Acinetobacter baumannii): > 8 µg/mL
MIC90 (Fusobacterium spp.): 2 µg/mL
MIC Range (Fusobacterium spp.): 1 to 4 µg/mL
MIC (Enterococcus faecalis; Enterococcus faecalis ATCC 29212, with Laked Horse Blood): 0.081 µg/mL
MIC90 (Enterococcus faecalis; [8]): 0.25 µg/mL
MIC Range (Enterococcus faecalis; [8]): 0.03 to 0.25 µg/mL
MIC [2, 9]: 0.045 µg/mL
MIC ([2]; M. tuberculosis Erdman ATCC 35801 with Mouse Serum): 2 µg/mL
MIC90 (Neisseria meningitidis): 0.12 µg/mL
MIC Range (Neisseria meningitidis): 0.015 to 0.25 µg/mL
MIC (Neisseria gonorrhoeae; Neisseria gonorrhoeae ATCC 35541): 1.3 µg/mL
MIC (Neisseria gonorrhoeae; Neisseria gonorrhoeae ATCC 49226): 2.3 µg/mL
MIC90 (Neisseria gonorrhoeae; [10]): 1 µg/mL
MIC Range (Neisseria gonorrhoeae; [10]): 0.5 to 1 µg/mL
MIC (Mycobacterium avium; M. avium 3404.4): 0.94 µg/mL
MIC (Mycobacterium avium; M. avium Far): 0.94 µg/mL
MIC (Mycobacterium avium; Mycobacterium avium 103): 0.47 µg/mL
MIC90 (Enterobacter cloacae): > 8 µg/mL
MIC90 (Pseudomonas aeruginosa): > 8 µg/mL
MIC90 (Moraxella catarrhalis): 0.12 µg/mL
MIC Range (Moraxella catarrhalis; 26 isolates tested, Protocol 2): 0.015 to 0.12 µg/mL
MIC90 (Enterococcus faecium; Enterococcus faecium): 0.5 µg/mL
MIC (Enterococcus faecium; Enterococcus faecium ATCC 49624, Protocol 1): 0.25 µg/mL
MIC (Enterococcus faecium; Enterococcus faecium ATCC 49624 with Laked Horse Blood, Protocol 1): 0.39 µg/mL
MIC Range (Enterococcus faecium; Enterococcus faecium, 33 isolates tested, Protocol 1): 0.12 to 0.5 µg/mL
MIC90 [3]: > 16 µg/mL
MIC (M. tuberculosis; [9]): 0.25 µg/mL
MIC (M. tuberculosis; M. tuberculosis H37Rv ATCC 25618): 0.37 µg/mL
MIC90 [4]: 0.25 µg/mL
MIC Range [4]: 0.06 to 0.5 µg/mL
MIC90 (Proteus mirabilis): > 8 µg/mL
MIC90 (Clostridium perfringens): 0.5 µg/mL

Reference: patent US20130317222A1, “SOLID FORMS OF GYRASE INHIBITOR (R)-1-ETHYL-3-[5-[2-(1-HYDROXY-1-METHYL-ETHYL)PYRIMIDIN-5-YL]-7-(TETRAHYDROFURAN-2-YL]-1H-BENZIMIDAZOL-2-YL]UREA” (Vertex Pharmaceuticals Incorporated, priority 2011, published 2013)
